Assay results published in US11413278B2, “Compounds and methods for promoting stress resistance” (priority 2015, dated 2022).
Where two headings read alike, the source gives them in different places.

Legend:
[1] = system: WI-38 cells; experiment: MMS resistance assay; assay type: cell-based, human; conditions: for fold induction at 10 µM: Homo sapiens, 12 h, normalized ATP measurement; for Assay 3: MMS-resistant / Assay 5: Triple resistant: YES/NO; for Assay 3: MMS-resistant: * indicates partial; for Assay 5: Triple resistant: H2O2, cadmium and MMS
Summary of the method: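 WI-38 cells were given compounds at five final concentrations (0.25–20 μM) in triplicate, followed by cadmium or MMS for 12 h. For MMS, medium was switched from OptiMEM+10% FBS to serum-free DMEM+2% BSA when compounds were added, 24 h before stressor. Two independent assays were run, analysed by global variance t-test.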

[2] = system: PC12 cells expressing poly(Q)103-Htt-EGFP; experiment: Poly(Q) toxicity & viability analysis (cellular model of Huntington's disease); assay type: cell-based, rat; conditions: for M = Huntington's poly-Q toxicity attenuation: score; for K = Huntington's poly-Q toxicity attenuation: summary score
Summary of the method: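 PC12 cells stably carrying inducible poly(Q)103-Htt-EGFP, whose induced expression causes aggregation and toxicity. Viability read 48 hrs later as ATP content by CellTiter-Glo.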

[3] = system: phosphorylated γH2A.X and TP53BP1; experiment: DNA damage marker analysis (immuno-staining); conditions: for activity at 10 µM: Homo sapiens, WI-38, 24 h
Summary of the method: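 WI-38 cells were cultured 24 h, then treated with compounds for 24 h; H2O2 (700 μM, 3 h) and doxorubicin (300 nM, 24 h) served as DNA-damage controls. After fixation, cells were immunostained for phospho-γH2A.X (Ser-139) and phospho-TP53BP1 (Ser-1778), counterstained with DAPI, and imaged by automated high-content microscopy.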

[4] = system: WI-38 cells; experiment: Long-term effects on cell viability (5 days, ATP; morphology, PI imaging); assay type: cell-based; conditions: 10 μM; for Luminescence signal for ATP measurement, day-1 Average / Luminescence signal for ATP measurement, day-2 Average / Luminescence signal for ATP measurement, day-3 Average / Luminescence signal for ATP measurement, day-4 Average / Luminescence signal for ATP measurement, day-5 Average: n = 6; for viability at 10 µM: Homo sapiens, WI-38, 120 h, DMSO ctrl = 100.0%, read-out: ATP luminescence by day-5 normalized; for Luminescence signal for ATP measurement, day-5 Average / viability at 10 µM: day-5; for O = Potential toxicity / Q = Potential toxicity: human, 5 days;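 on Luminescence signal for ATP measurement, day-2 Average: compounds at 10 µM with ATP read daily over 5 days of treatment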;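 on Luminescence signal for ATP measurement, day-3 Average: compounds at 10 µM with ATP read daily over 5 days of treatment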;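 on Luminescence signal for ATP measurement, day-4 Average: compounds at 10 µM with ATP read daily over 5 days of treatment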;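 on Luminescence signal for ATP measurement, day-5 Average: compounds at 10 µM with ATP read daily over 5 days of treatment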
[5] = system: WI-38 cells; conditions: for No H2O2 stress treatment, at 10 uM (fold change): normalized ATP measurement; for Assay 1: H2O2-resistant: YES/NO, if NO, possibly due to repeated freezing/thawing of stocks
[6] = Exp. 1, WI-38 cells, read-out: Exp. 1, under MMS stress treatment, at 10 uM (fold change)
[7] = Exp. 2, WI-38 cells, read-out: Exp. 2, under MMS stress treatment, at 10 uM (fold change)
[8] = score in summary of 38 core set hits
[9] = read-out: Experiment 1, H2A.X-P DNA damage foci staining (no H2O2 stress treatment), at 10 uM
[10] = read-out: Experiment 2, H2A.X-P DNA damage foci staining (no H2O2 stress treatment), at 10 uM
[11] = read-out: Experiment 2, H2A.X-P DNA damage foci staining (under H2O2 stress treatment), at 10 uM
[12] = read-out: Experiment 2, TP53BP1-P DNA damage foci staining (no H2O2 stress treatment), at 10 uM
[13] = read-out: Experiment 2, TP53BP1-P DNA damage foci staining (under H2O2 stress treatment), at 10 uM
[14] = Batch 2, day-0 luminescence = 229312 ± 17487
[15] = WI-38 cells, 10 μM, (*) = compromised ability to protect cells from H2O2, could be due to stability issue
[16] = asterisks indicate the loss of the ability to protect cells from H2O2 over time
[17] = derived from dose response curves, 0.6-20 uM, H2O2-resistance of WI-38 cells
[18] = read-out: Est. ED50, dose response 0.6-20 μM, H2O2-resistance
[19] = negative point, cultured human cells
[20] = Batch 1, day-0 luminescence = 320956 ± 24708

| SMILES | fold induction at 10 µM [1, 6] | fold induction at 10 µM [1, 7] | B = MMS resistant [1, 8] | B = MMS resistant ([1]; summary score) | D = Triple resistant ([1]; summary score) | M = Huntington's poly-Q toxicity attenuation [2] | K = Huntington's poly-Q toxicity attenuation [2] | activity at 10 µM [3, 9] [%] | activity at 10 µM [3, 10] [%] | activity at 10 µM [3, 11] [%] | activity at 10 µM [3, 12] [%] | activity at 10 µM [3, 13] [%] | P = Potential DNA-damaging ([3]; human, 24 h) | O = Potential toxicity [4] | Q = Potential toxicity [4] | H2O2-resistant [5, 15] | No H2O2 stress treatment, at 10 uM (fold change) ([5]; WI-38 cells) | H2O2-resistant [5, 16] | EC50 [5, 17] [µM] | EC50 [5, 18] [µM] | other results |
| --- | --- | --- | --- | --- | --- | --- | --- | --- | --- | --- | --- | --- | --- | --- | --- | --- | --- | --- | --- | --- | --- |
| Cc1ccc(S(=O)(=O)Nc2cccc3cccnc23)cc1 [Gr-3B] | 1.72 | 1.33 | 0 | 0 | 0 | 0 | 0 | 81.9 | 228 | 130 | 244 | 66.3 | 0 | 0 | 1 | YES | 0.90 | YES | 8.5 | 4.24 | R = Potential DNA damaging ([3]; human, 24 h): 0; Luminescence signal for ATP measurement, day-1 Average [4, 14]: 184710; Luminescence signal for ATP measurement, day-2 Average [4, 14]: 110226; Luminescence signal for ATP measurement, day-3 Average [4, 14]: 109008; Luminescence signal for ATP measurement, day-4 Average [4, 14]: 52193; Luminescence signal for ATP measurement, day-5 Average [4, 14]: 63138; viability at 10 µM ([4]; Batch 2): 11.4% |
| Nc1ccccc1S(=O)(=O)Nc1cccc2cccnc12 [Gr-3C] | 1.06 | 0.84 | 0 | 0 | 0 | 0 | 0 | 113 | 404 | 136 | 254 | 390 | 1 | 0 | 1 | YES | 0.95 | YES | 6.5 | 4.6 | R = Potential DNA damaging ([3]; human, 24 h): 1; Luminescence signal for ATP measurement, day-1 Average [4, 14]: 190045; Luminescence signal for ATP measurement, day-2 Average [4, 14]: 194191; Luminescence signal for ATP measurement, day-3 Average [4, 14]: 270505; Luminescence signal for ATP measurement, day-4 Average [4, 14]: 244033; Luminescence signal for ATP measurement, day-5 Average [4, 14]: 265285; viability at 10 µM ([4]; Batch 2): 47.7% |
| COc1ccc(C(=O)/C=C/c2ccc(F)cc2)c(OC)c1 [Gr-4A] | 0.95 | 1.52 | 0 | 0 | 0 | 0 | 0 | 80.2 | 75 | 105 | 155 | 287 |  | 0 | 0 | YES | 1.08 | YES | 9.1 | 4.97 | R = Potential DNA damaging [3, 19]: 0; P = Potential DNA-damaging ([3]; summary score): 0; Luminescence signal for ATP measurement, day-1 Average [4, 20]: 501436; Luminescence signal for ATP measurement, day-2 Average [4, 20]: 605711; Luminescence signal for ATP measurement, day-3 Average [4, 20]: 772420; Luminescence signal for ATP measurement, day-4 Average [4, 20]: 995321; Luminescence signal for ATP measurement, day-5 Average [4, 20]: 1019996; viability at 10 µM ([4]; Batch 1): 99.3%; Assay 1: H2O2-resistant [5]: YES |
| COc1ccc(C(=O)/C=C/c2ccccc2Br)c(OC)c1 [Gr-4B] | 1.22 | 1.54 | 0 | 1 | 2 | 0 | 0 | 116 | 140 | 150 | 118 | 435 |  | 0 | 0 | YES | 1.18 | YES | 8.9 | 5.33 | Assay 3: MMS-resistant [1]: YES; Assay 5: Triple resistant [1]: YES; R = Potential DNA damaging [3, 19]: 0; P = Potential DNA-damaging ([3]; summary score): 0; Assay 1: H2O2-resistant [5]: YES |
| COc1ccc(C(=O)/C=C/c2cccc(Cl)c2)c(OC)c1 [Gr-4C] | 1.24 | 1.61 | 0 | 1 | 2 | 0 | 0 | 108 | 135 | 150 | 179 | 444 |  | 0 | 0 | YES | 1.08 | YES | 8.4 | 6.45 | Assay 3: MMS-resistant [1]: YES; Assay 5: Triple resistant [1]: YES; R = Potential DNA damaging [3, 19]: 0; P = Potential DNA-damaging ([3]; summary score): 0; Luminescence signal for ATP measurement, day-1 Average [4, 20]: 413360; Luminescence signal for ATP measurement, day-2 Average [4, 20]: 474171; Luminescence signal for ATP measurement, day-3 Average [4, 20]: 485641; Luminescence signal for ATP measurement, day-4 Average [4, 20]: 769380; Luminescence signal for ATP measurement, day-5 Average [4, 20]: 813018; viability at 10 µM ([4]; Batch 1): 79.2%; Assay 1: H2O2-resistant [5]: YES |
| O=C(/C(=C/c1ccc(Cl)cc1)c1nc2ccccc2[nH]1)c1ccccc1 [Gr-4D] | 1.72 | 1.33 | 0 | 1 | 2 | 0 | 0 | 103 | 49.6 | 123 | 136 | 388 | 0 | 0 | 0 | YES | 1.11 | YES | 10.6 | 8.9 | Assay 3: MMS-resistant [1]: YES; Assay 5: Triple resistant [1]: YES; R = Potential DNA damaging ([3]; human, 24 h): 0; Assay 1: H2O2-resistant [5]: YES |
| CCc1ccc(Oc2nc3ccccn3c(=O)c2/C=C(\C#N)C(=O)NC2CCCCC2)cc1 [Gr-5A] | 0.83 | 1.49 | 0 | 0 | 0 | 0 | 0 | 105 | 115 | 127 | 147 | 548 | 0 | 0 | 0 | YES | 1.14 | YES |  | 10.2 | R = Potential DNA damaging ([3]; human, 24 h): 0; Luminescence signal for ATP measurement, day-1 Average [4, 20]: 527000; Luminescence signal for ATP measurement, day-2 Average [4, 20]: 728148; Luminescence signal for ATP measurement, day-3 Average [4, 20]: 837593; Luminescence signal for ATP measurement, day-4 Average [4, 20]: 1074220; Luminescence signal for ATP measurement, day-5 Average [4, 20]: 1082445; viability at 10 µM ([4]; Batch 1): 105% |
